Results as given in patent US12264156B2, “Compounds and pharmaceutical compositions thereof for the treatment of diseases” (GALAPAGOS NV, priority 2018, dated 2025).

Legend:
[1] = target: T1, SIK1 (Homo sapiens, UniProt P57059); assay: ADP-Glo kinase assay, SIK1; type: biochemical; details: ADP-Glo SIK kinase assay
T1 construct: purchased Carna Biosciences 02-131
Procedure, shortened: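 Enzyme–substrate mix was started with ATP and incubated 120 min at RT. ADP formed was quantified by ADP-Glo: 40 min ATP depletion, then 30 min detection reagent converting ADP to ATP for luciferase luminescence, which rises with kinase activity. Controls: 1% DMSO and 10 μM staurosporine (final).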

[2] = target: T2, SIK2 (Homo sapiens, UniProt Q9H0K1); assay: ADP-Glo kinase assay, SIK2; type: biochemical; details: ADP-Glo SIK kinase assay
T2 construct: purchased ThermoFisher Scientific PV4792
Procedure, shortened: (§1)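 ADP-Glo, RT throughout. Enz/substrate + ATP, 120 min; ADP-Glo reagent 40 min (ATP depletion); detection reagent 30 min; luminescence read. Neg ctrl 1% DMSO, pos ctrl 10 μM staurosporine, final concs.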

[3] = test system: LPS-induced TNFα in monocytes; assay: Monocytes assay: LPS-triggered TNFα (ELISA); type: cell-based, human; details: Homo sapiens, Monocyte, 4 h, LPS 200 ng/mL, supernatant after 4 h
Method: (§2) SIK inhibition inhibits TNFα and increases IL-10 release in LPS triggered monocyte-derived macrophages (MdM) and dendritic cells (MdDCs) (Clark et al. 2012; Sundberg et al. 2014; Ozanne et al. 2015). This assay evaluates illustrative compounds of the invention for their inhibition of LPS-induced TNFα and LPS triggered IL-10 secretion in monocytes.
(§3) PBMCs are isolated from human blood samples (buffycoats). The buffy coat is aseptically transferred into a 50 mL Falcon tube, and diluted 1/2 in PBS. Falcon tubes are filled with 20 mL Lymphoprep™, on top of which 25 mL of the buffy coat is carefully added, tubes are centrifuged for 35 min at 400 g in temperature controlled centrifuge, without brake, at 25° C. PBMCs are aspirated from the white interface layer between sample and Lymphoprep™. PBMCs are washed five times in PBS. Cells are resuspended in RPMI 1640 complete medium supplemented with 10% FBS, 1% P/S, and cell density is determined using a hematologic analyzer (Sysmex XS-500i).
(§4) PBMCs are centrifuged at 300×g for 10 min and resuspended at a density of 1.0*10^7 cells/80 μL Miltenyi buffer (PBS, pH 7.4, 1% FBS, 2 mM EDTA).
(§5) Starting from this point of the protocol all steps are performed on ice. 20 μL of CD14+ micro-beads are added per 1.0*10^7 cells, the tube is mixed and incubated for 15 min in the fridge at 4° C. Cell suspension volume is adjusted to total volume of 100 mL using Miltenyi buffer, mixed gently and subsequently centrifuged for 10 min at 300×g. Supernantant is discarded and cell pellet is resuspended in 12 mL of Miltenyi buffer.
(§6) Four LS columns are placed in the MACS Separator (magnet) from Miltenyi Biotec, and are prewet by rinsing with 3 mL of MACS buffer per column. Three mL of cell suspension is added onto the column (max 1*10^8 of labelled cells/column), and columns are subsequently washed 3 times with 3 mL of Miltenyi buffer.
(§7) The columns are removed from the magnets, and 5 mL of Miltenyi buffer are added to the column to flush out the CD14+ fraction by pushing the plunger into the column. The flushed fractions are collected in a fresh 50 mL Falcon and volume is adjusted to 30 mL using Miltenyi buffer, cells are centrifuged for 10 min at 300×g. The obtained cell pellet is resuspended in 10 mL RPMI w/o FBS, and cell density is determined using a hematologic analyser (Sysmex XS-500i). 100 000 cells are seeded in 80 μL per well of a 96-well plate in RPMI 1640 medium supplemented with 10% FBS, 1% P/S.
(§8) A compound dilution plate is made in 100% DMSO by 3-fold dilution of 10 mM stock solution. An intermediate dilution plate (10× final concentration) is made by diluting the compound dilution plate 50-fold in RPMI medium.
(§9) 10 μL of the 10× final concentration compound is added to the cells and incubated for 1 h at 37° C. before addition of trigger. No trigger conditions/trigger conditions are spiked with equal final DMSO concentrations of 0.2% DMSO. 10 μL of 10×LPS (final conc. 200 ng/mL) solution are added to all wells except for the ‘no trigger wells’ where 10 μL medium is added. Supernatant is collected after 4 h of LPS triggering.
A Lumitrac 600 Greiner 384-well plate is coated with 40 μL of capture antibody (BD Pharmingen, Cat #551220) reaching a final concentration of 1 μg/mL in 1×PBS and stored overnight at 4° C.
The plate is then washed once with PBST (PBS+0.05% Tween20) and once with PBS followed by the addition of 100 μL of blocking buffer (1% Bovine Serum Albumin (BSA)−5% Sucrose) and plates are sealed and incubated for at least 4 h at RT. After washing the plate once with PBST and once with PBS, […]. Plates are washed twice with PBST, and once with PBS, after which 35 μL of the detection antibody is added (final concentration 0.25 μg/mL diluted in dilution buffer) and plates are incubated for at least 2 h at RT. […]

[4] = target: T3, SIK3 (Homo sapiens, UniProt Q9Y2K2); assay: ADP-Glo kinase assay, SIK3; type: biochemical; details: ADP-Glo SIK kinase assay
T3 construct: purchased SignalChem S12-11G-100
Procedure, shortened: as §1

[5] = test system: LPS triggered IL-10 secretion in monocytes; assay: Monocytes assay: LPS-triggered IL-10 (ELISA); type: cell-based, human; details: LPS 200 ng/mL, supernatant after 4 h, maximal fold change vs LPS only
Method: as §2, §3, §4, §5, §6, §7, §8, §9
A Lumitrac 600 Greiner 384-well plate is coated with 40 μL of capture antibody (final concentration of 1 μg/mL in 1×PBS) and stored overnight at 4° C. The next day the plate is washed three times with PBST (PBS+0.05% Tween20) and once with PBS followed by the addition of 100 μL of blocking buffer (1% BSA−5% Sucrose) and plates are sealed and incubated for at least 4 h at RT. After washing the plate once with PBST and once with PBS, 40 μL of standard or sample are added (IL-10 standard curve is prepared using a 1/2 serial dilution starting from […]; dilutions are made in dilution buffer (PBS+1% BSA)). Plates are washed twice with PBST, and once with PBS, after which 35 μL of the detection antibody is added (final concentration 0.143 μg/mL diluted in dilution buffer) and plates are incubated for at least 2 h at RT. […]

T1 sequence (P57059 whole entry): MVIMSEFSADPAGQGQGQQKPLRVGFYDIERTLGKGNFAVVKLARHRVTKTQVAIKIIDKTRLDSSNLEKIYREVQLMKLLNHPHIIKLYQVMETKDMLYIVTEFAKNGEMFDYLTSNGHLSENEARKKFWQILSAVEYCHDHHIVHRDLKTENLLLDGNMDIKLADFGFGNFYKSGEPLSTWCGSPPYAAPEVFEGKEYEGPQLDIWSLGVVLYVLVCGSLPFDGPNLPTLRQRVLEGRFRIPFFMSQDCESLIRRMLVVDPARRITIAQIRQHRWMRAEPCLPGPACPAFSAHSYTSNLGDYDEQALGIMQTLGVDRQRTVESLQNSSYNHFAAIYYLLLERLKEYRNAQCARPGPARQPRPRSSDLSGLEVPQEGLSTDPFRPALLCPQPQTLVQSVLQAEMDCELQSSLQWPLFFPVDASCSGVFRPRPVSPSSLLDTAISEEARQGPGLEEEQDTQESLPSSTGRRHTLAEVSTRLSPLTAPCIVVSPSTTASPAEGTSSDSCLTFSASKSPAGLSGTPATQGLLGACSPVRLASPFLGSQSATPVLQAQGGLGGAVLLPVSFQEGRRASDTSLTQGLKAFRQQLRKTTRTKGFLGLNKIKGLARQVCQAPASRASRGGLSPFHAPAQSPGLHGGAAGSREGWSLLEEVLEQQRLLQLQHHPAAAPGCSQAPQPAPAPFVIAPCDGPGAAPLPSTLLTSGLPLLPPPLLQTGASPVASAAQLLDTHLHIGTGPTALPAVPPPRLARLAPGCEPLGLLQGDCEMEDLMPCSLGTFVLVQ
T2 sequence (Q9H0K1 whole entry): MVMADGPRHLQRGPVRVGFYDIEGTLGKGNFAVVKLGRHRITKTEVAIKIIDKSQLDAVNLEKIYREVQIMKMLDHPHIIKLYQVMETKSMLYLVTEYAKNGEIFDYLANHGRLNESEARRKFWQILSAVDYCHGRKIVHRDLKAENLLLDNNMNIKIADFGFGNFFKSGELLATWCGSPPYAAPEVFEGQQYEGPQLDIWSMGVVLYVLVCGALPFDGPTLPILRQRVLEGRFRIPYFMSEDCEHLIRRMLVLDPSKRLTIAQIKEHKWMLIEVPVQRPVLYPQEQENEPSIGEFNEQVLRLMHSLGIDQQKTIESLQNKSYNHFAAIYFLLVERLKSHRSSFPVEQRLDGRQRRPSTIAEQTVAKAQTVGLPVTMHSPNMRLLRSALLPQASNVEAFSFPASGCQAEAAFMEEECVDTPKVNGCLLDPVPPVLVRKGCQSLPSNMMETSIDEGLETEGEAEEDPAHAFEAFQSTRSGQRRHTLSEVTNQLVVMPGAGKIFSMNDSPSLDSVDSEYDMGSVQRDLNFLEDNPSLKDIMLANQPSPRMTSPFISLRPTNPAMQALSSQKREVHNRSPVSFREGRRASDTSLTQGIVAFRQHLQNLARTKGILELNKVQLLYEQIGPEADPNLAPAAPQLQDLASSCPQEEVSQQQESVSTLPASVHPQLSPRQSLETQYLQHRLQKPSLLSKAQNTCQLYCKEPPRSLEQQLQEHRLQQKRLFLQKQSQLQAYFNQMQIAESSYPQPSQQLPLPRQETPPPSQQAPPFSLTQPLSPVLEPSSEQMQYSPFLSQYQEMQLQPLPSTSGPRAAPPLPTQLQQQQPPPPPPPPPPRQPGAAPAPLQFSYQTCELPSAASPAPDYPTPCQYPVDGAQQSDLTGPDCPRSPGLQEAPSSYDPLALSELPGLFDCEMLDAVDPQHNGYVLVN
T3 sequence (Q9Y2K2 whole entry): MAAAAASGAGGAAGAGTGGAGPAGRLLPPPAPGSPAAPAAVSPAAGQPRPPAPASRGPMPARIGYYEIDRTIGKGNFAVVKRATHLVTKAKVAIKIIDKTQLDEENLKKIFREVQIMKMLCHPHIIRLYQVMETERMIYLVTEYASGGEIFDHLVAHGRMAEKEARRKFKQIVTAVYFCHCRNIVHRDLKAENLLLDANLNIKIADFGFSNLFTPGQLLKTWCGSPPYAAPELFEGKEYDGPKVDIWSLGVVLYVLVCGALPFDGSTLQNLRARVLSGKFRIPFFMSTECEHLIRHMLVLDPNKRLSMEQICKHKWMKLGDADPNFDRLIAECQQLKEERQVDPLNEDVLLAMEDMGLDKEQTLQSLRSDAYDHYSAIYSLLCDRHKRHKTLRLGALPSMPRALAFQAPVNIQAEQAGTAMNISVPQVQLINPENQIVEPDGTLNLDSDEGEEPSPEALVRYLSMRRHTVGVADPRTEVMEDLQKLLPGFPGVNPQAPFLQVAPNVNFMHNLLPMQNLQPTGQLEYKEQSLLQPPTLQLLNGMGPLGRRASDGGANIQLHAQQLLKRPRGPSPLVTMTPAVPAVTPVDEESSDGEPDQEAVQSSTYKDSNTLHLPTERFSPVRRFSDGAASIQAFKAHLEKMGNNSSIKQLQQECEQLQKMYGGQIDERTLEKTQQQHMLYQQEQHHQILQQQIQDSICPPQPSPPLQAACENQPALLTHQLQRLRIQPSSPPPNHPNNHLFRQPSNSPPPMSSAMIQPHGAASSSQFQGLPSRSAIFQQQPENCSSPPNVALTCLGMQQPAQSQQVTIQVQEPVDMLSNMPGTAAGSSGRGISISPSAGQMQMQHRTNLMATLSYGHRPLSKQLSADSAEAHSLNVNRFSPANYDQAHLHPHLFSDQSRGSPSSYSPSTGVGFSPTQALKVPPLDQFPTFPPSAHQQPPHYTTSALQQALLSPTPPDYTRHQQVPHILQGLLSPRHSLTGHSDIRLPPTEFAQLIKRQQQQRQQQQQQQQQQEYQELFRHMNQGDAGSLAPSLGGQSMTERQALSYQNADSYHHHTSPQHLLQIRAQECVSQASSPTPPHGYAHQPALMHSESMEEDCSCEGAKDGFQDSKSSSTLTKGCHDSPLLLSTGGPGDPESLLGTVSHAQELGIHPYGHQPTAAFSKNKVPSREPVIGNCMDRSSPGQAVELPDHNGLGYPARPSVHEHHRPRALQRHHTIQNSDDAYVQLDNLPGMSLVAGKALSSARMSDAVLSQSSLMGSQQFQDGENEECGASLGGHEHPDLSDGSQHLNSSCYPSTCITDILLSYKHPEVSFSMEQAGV

Row | Compound | IC50 [1] | IC50 [2] | EC50 [3] | IC50 [4] | IL-10 FCmax median [5]
1 | COc1cc(-c2cnc3cc(OC4C[C@H]5CC[C@@H](C4)N5CCC#N)ccn23)cc(OC(F)F)c1C(=O)NC1CC1 (stereo partly drawn) [Cpd 271, 4-[7-[[(1S,5R)-8-(2-cyanoethyl)-8-azabicyclo[3.2.1]octan-3-yl]oxy]imidazo[1,2-a]pyridin-3-yl]-N-cyclopropyl-2-(difluoromethoxy)-6-methoxy-benzamide] | 100 to 500 nM | 10 to 100 nM | 100 to 1000 nM | 0.01 to 10 nM | ++ (>1.5-4.5)
2 | COc1cc(-c2cnc3cc(OCCCN4CC5(CCC5)C4)ccn23)cc(OC(F)F)c1C(=O)NC1CC1 [compound 293, 4-[7-[3-(2-azaspiro[3.3]heptan-2-yl)propoxy]imidazo[1,2-a]pyridin-3-yl]-N-cyclopropyl-2-(difluoromethoxy)-6-methoxy-benzamide] | 10 to 100 nM | 0.01 to 10 nM | 0.1 to 100 nM | 0.01 to 10 nM | +++ (>4.5)
3 | COc1cc(-c2cnc3cc(OCC4COCCN4C(C)C)ccn23)cc(OC(F)F)c1C(=O)NC1CC1 (stereo not drawn) [compound 283, N-cyclopropyl-2-(difluoromethoxy)-4-[7-[(4-isopropylmorpholin-3-yl)methoxy]imidazo[1,2-a]pyridin-3-yl]-6-methoxy-benzamide] | 10 to 100 nM | 10 to 100 nM | 100 to 1000 nM | 0.01 to 10 nM | +++ (>4.5)
4 | COc1cc(-c2cnc3cc(OC[C@@H]4CCN(C(C)C)C4)ccn23)cc(OC(F)F)c1C(=O)NC1CC1 [compound 337, N-cyclopropyl-2-(difluoromethoxy)-4-[7-[[(3R)-1-isopropylpyrrolidin-3-yl]methoxy]imidazo[1,2-a]pyridin-3-yl]-6-methoxy-benzamide] | 10 to 100 nM | 0.01 to 10 nM | 0.1 to 100 nM | 0.01 to 10 nM | +++ (>4.5)
5 | COc1cc(-c2cnc3cc(OC[C@@H]4CCCN(C(C)C)C4)ccn23)cc(OC(F)F)c1C(=O)NC1CC1 [compound 338, N-cyclopropyl-2-(difluoromethoxy)-4-[7-[[(3R)-1-isopropyl-3-piperidyl]methoxy]imidazo [1,2-a]pyridin-3-yl]-6-methoxy-benzamide] | 10 to 100 nM | 0.01 to 10 nM | 0.1 to 100 nM | 0.01 to 10 nM | ++ (>1.5-4.5)
6 | COc1cc(-c2cnc3cc(OCCCN4CCC(F)(C(=O)O)CC4)ccn23)cc(OC(F)F)c1C(=O)NC1CC1 [Cpd 366, 1-[3-[3-[4-(cyclopropylcarbamoyl)-3-(difluoromethoxy)-5-methoxy-phenyl]imidazo[1,2-a]pyridin-7-yl]oxypropyl]-4-fluoro-piperidine-4-carboxylic acid] | 10 to 100 nM | 0.01 to 10 nM | 1000 to 5000 nM | 0.01 to 10 nM | ++ (>1.5-4.5)
7 | CCOC(=O)C1(C)CCN(CC(O)COc2ccn3c(-c4cc(OC)c(C(=O)NC5CC5)c(OC(F)F)c4)cnc3c2)CC1 (stereo not drawn) [compound 382, ethyl 1-[3-[3-[4-(cyclopropylcarbamoyl)-3-(difluoromethoxy)-5-methoxy-phenyl]imidazo[1,2-a]pyridin-7-yl]oxy-2-hydroxy-propyl]-4-methyl-piperidine-4-carboxylate] | 10 to 100 nM | 0.01 to 10 nM | 0.1 to 100 nM | 0.01 to 10 nM | ++ (>1.5-4.5)

Further lines, with some results ahead:

Row | IC50 [1] | IC50 [2] | EC50 [3] | IC50 [4] | Compound | IL-10 FCmax median [5]
8 | 10 to 100 nM | 0.01 to 10 nM | 0.1 to 100 nM | 0.01 to 10 nM | COc1cc(-c2cnc3cc(OC[C@H]4CCN(C(C)C)C4)ccn23)cc(OC(F)F)c1C(=O)NC1CC1 [compound 316, N-cyclopropyl-2-(difluoromethoxy)-4-[7-[[(3S)-1-isopropylpyrrolidin-3-yl]methoxy]imidazo[1,2-a]pyridin-3-yl]-6-methoxy-benzamide] | +++ (>4.5)
9 | 10 to 100 nM | 0.01 to 10 nM | 0.1 to 100 nM | 0.01 to 10 nM | COc1cc(-c2cnc3cc(OCCCN4CCC(O)CC4)ccn23)cc(OC(F)F)c1C(=O)NC1CC1 [compound 277, N-cyclopropyl-2-(difluoromethoxy)-4-[7-[3-(4-hydroxy-1-piperidyl)propoxy]imidazo [1,2-a]pyridin-3-yl]-6-methoxy-benzamide] | +++ (>4.5)
10 | 10 to 100 nM | 0.01 to 10 nM | 100 to 1000 nM | 0.01 to 10 nM | COc1cc(-c2cnc3cc(OCCCN4CCCCC4)ccn23)cc(OC(F)F)c1C(=O)N1CC(O)(C(F)F)C1 [compound 358, [2-(difluoromethoxy)-6-methoxy-4-[7-[3-(1-piperidyl)propoxy]imidazo[1,2-a]pyridin-3-yl]phenyl]-[3-(difluoromethyl)-3-hydroxy-azetidin-1-yl]methanone] | +++ (>4.5)
11 | 10 to 100 nM | 0.01 to 10 nM | 100 to 1000 nM | 0.01 to 10 nM | COc1cc(-c2cnc3cc(OC[C@H]4CCCNC4)ccn23)cc(OC(F)F)c1C(=O)NC1CC1 [Cpd 315, N-cyclopropyl-2-(difluoromethoxy)-6-methoxy-4-[7-[[(3S)-3-piperidyl]methoxy]imidazo[1,2-a]pyridin-3-yl]benzamide] | ++ (>1.5-4.5)
12 | 10 to 100 nM | 0.01 to 10 nM | 100 to 1000 nM | 0.01 to 10 nM | COc1cc(-c2cnc3cc(OC[C@@H]4CCNC4)ccn23)cc(OC(F)F)c1C(=O)NC1CC1 [Cpd 334, N-cyclopropyl-2-(difluoromethoxy)-6-methoxy-4-[7-[[(3R)-pyrrolidin-3-yl]methoxy]imidazo[1,2-a]pyridin-3-yl]benzamide] | ++ (>1.5-4.5)
